In brackets after ≈: the same amount, converted by molar mass.

For test [1], the system named is A. baumannii. The test can be described thus: microbe, parasite or virus in culture. Put shortly: (§1)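 CLSI broth microdilution (M07/M100); inoculum from 0.5 McFarland suspension diluted in CAMHB; MIC = lowest concentration with no visible growth or where OD600 stops falling.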
For test [2], the system named is K. pneumoniae ATCC 700603. In words: microbe, parasite or virus in culture. Put shortly:
as §1

Regarding `CN1C(=O)[C@H](CCCCN)NC(=O)[C@H](CCCN)NCc2cccnc2Sc2c(Cl)ccc(-c3ccc(C(=O)O)cc3)c2CNC(=O)[C@@H]1Cc1c[nH]c2ccccc12` [RO7202110], the MIC range in test [1] (10 MDR isolates, CAMHB, MCPs read at 80% growth inhibition) is given as ≤0.06 − 0.12 mg l^−1. Further, the MIC90 in test [1] (Acinetobacter baumannii) is 0.12 µg/mL (≈ 0.145 µM). In addition, the MIC in test [1] (Acinetobacter baumannii, ATCC17978, ATCC 17978, CAMHB, one replicate, MCPs read at 80% growth inhibition) was ≤ 0.06 µg/mL; in test [1] (Acinetobacter baumannii, ATCC19606, ATCC 19606, CAMHB, MCPs read at 80% growth inhibition) it was ≤ 0.06 µg/mL; in test [2] (Klebsiella pneumoniae, ATCC700603, CAMHB, mode of at least three replicates (RO7036668 one replicate)), > 64 µg/mL. Moreover, the “MIC 100%” value in test [2] (Study LGC294355), in test [2] (Study LGC295147), in test [2] (Study LGC299544) and in test [2] (Study LGC308175) was >64 µg/mL in each case.
